Positions of bridges follow the written chain, without caps; N, C: chain ends. Residues, ends and D or L forms follow the SMILES beside them.
Test system: B16F10 melanoma
Assay: Mouse tumorigenesis: subcutaneous B16F10 melanoma, intravenous treatment from day 0
Type: in vivo
Description: FIG. 4 Recombinant ISM and ISM derived cRKD peptide inhibit B16F10 tumour growth in vivo. A. Tumour growth curve in mice. X-axis represents the days after 5×10^5 tumour cell inoculation. Groups consisted of control mice receiving no treatment, recombinant ISM, cRKD peptide and its control-cyclic RAA peptide, given in six doses of 250 μg/mouse through tail vein injection on days 0, 2, 4, 6, 8, and 10 (5 mice in each group, each mice with one tumour). **: p<0.01,*: p<0.05, n=5. B. Tumour weight at the end of the experiment (14 days after tumour cell inoculation). C. Recombinant ISM and cRKD peptide inhibits B16F10 tumour growth. […] Paraffin sections of tumors from mice groups treated by control, ISM, cRAA and cRKD peptides were probed for microvessel density, tumor cell proliferation and apoptosis through immunofluoresence staining using anti-CD31 (A), anti-PCNA (B) and TUNEL staining (C) respectively. Representative photos are shown. (D) Quantification of microvessel density. Microvessel density is the number of microvessels per microscopic field. (E) Quantification of cell proliferation in tumor sample. Cell proliferation is presented as the percentage of PCNA positive cells out of the total number of cells (DAPI positive cells) in the microscopic field. (F) Quantification of apoptosis in tumor. Apoptosis is quantified as the percentage of TUNEL positive cells out of the total number of cells (DAPI positive cells) in the microscopic field. Plots represent the mean of 3 fields per section, 3 sections per tumor and 2 tumors per group (±SEM). ** P≦0.01, * P≦0.05; Adult 8-week-old female C57BL/6J mice were used in this study. Animal care and experimentation was carried out under the institutional guidelines issued by the local institutional animal care and use committee (IACUC; protocol 066/12). 5×10^5 B16F10 cells in 0.1 ml PBS were injected subcutaneously into the dorsal left flank of the mouse. Twenty mice were assigned into 4 different groups consisted of control mice receiving no treatment, recombinant ISM, cyclic RKD peptide and its peptide control-cyclic RAA peptide, given in six doses of 250 μg through tail vein injection on days 0, 2, 4, 6, 8, and 10 (5 mice in each group, each mice with one tumor). Health status of the mice was monitored over two weeks and visible tumor size were measured daily by calipers after 8 days until the end point (day 14). Tumor volume was calculated using the following formula: 0.52×length×(width)^2 mm^3, where the largest dimension of the tumor is considered as the length and the width is the perpendicular dimension. On day 14, mice were sacrificed, and their dorsal flank was opened and photographed to exam the vascularization. Then tumors were excised and weighed followed by either fixing in 4% paraformaldehyde for sectioning or snap-freezing in liquid nitrogen for further analysis. Paraffin-embedded tissue sections of 5 μm were deparaffinized by heating at 60° C. for 7 minutes before deparaffinizing in histoclear followed by the rehydration in graded series of alcohol (100%, 90%, 80%, and 70% ethanol in ddH2O) and finally in PBS for 5 minutes. Antigen retrieval was done in a bench-top 2100-Retriever according to the protocol of the manufacturer (Electron Microscopy Sciences, Hatfield, Pa.). The sections were blocked with 3% bovine serum albumin (BSA) in a humidified chamber for 1 hour at room temperature followed by overnight incubation with the anti-CD31 (Santa Cruz Biotechnology, Santa Cruz, Calif.), anti-PCNA antibody (Santa Cruz Biotechnology), anti-GRP78 antibody (Santa Cruz Biotechnology), or anti-His tag antibody (Santa Cruz Biotechnology) at 4° C. The following day, unbound antibody was washed with 1×PBS containing 0.1% Tween-20 (1×PBST) and incubated with the corresponding Alexafluor 568 secondary antibodies (Life Technologies) for 1.5 hours at 37° C. Sections were rinsed again and incubated for 10 minutes with DAPI at 1 μg/mL to visualize the DNA in the cell nucleus. […]

Structure (SMILES): N=C(N)NCCC[C@@H]1NC(=O)[C@@H](N)CSSC[C@@H](C(=O)O)NC(=O)[C@H](CC(=O)O)NC(=O)[C@H](CCCCN)NC1=O [cRKD, Cyclic CRKDC peptide] (H-CRKDC-OH; disulfide 1-5; N-terminus and C-terminus assumed)
- tumor growth (250 μg/mouse intravenous every 2 days, days 0-10, subcutaneous B16F10): significantly suppressed tumor growth
- vascularization (blood vessels supplying the tumor) (250 μg/mouse intravenous, day 14): obviously reduced
- tumor angiogenesis, tumor cell proliferation and tumor cell apoptosis (immunofluorescence of tumor sections): suppress tumor angiogenesis, tumor cell proliferation and induce tumor cell apoptosis
- suppression of subcutaneous mouse melanoma growth (intravenous injection): 75%
- increase of apoptosis in the tumor tissue (TUNEL) (quantitation of tumor sections): more than 3 fold
- suppression of tumor angiogenesis (tumor vessel density) (quantitation of tumor sections): more than 3 fold
- suppression of tumor cell proliferation (PCNA) (quantitation of tumor sections): more than 2 fold
- apoptosis of tumor cells and tumor ECs (CD31/TUNEL double staining) (tumor sections, compared to controls): both tumor cells as well as tumor ECs became apoptotic
- tumor vessel density (anti-CD31 immunofluorescence) (tumor tissue sections): obvious reduction of tumor vessel density

— patent US20160002297A1, “THERAPEUTIC AGENTS” (NATIONAL UNIVERSITY OF SINGAPORE, priority 2013, published 2016)
